# Laboratory results: patent US6949553B2, “Aliphatic compounds, their synthesis method, and utilization of the same” (Maruha Corporation, priority 2001, dated 2005)
# Several values for one entry are separate records, joined by “and”; a condition that tells them apart may be missing. Identical values can stand only once. Like-named read-outs stand apart in the source and are kept apart here.
# What was measured:
# human platelets [1] = assay: Human in vitro platelet aggregation; format: cell-based; settings: read-out: 50% inhibition point, IC50, against human in vitro platelet aggregation
# Experimental: From each of the large brachial veins of human volunteers, 10 ml of blood per person was drawn using an 18G syringe needle. The blood was gently dropped into a 15 ml Falcon tube containing 1 ml of 3.8% sodium citrate (Citral, Yamanouchi Pharmaceutical). A stopper for the tube was closed, and slowly inverted for mixing. Then, the blood was centrifuged at 900 rpm for 10 minutes at room temperature to separate the supernatant (platelet rich fraction, platelet rich plasma, PRP). The residue was further centrifuged for 15 minutes at 2,500 rpm to obtain the supernatant (platelet poor fraction, platelet poor plasma, PPP). The platelet density of PRP was measured with a blood cell counter (Sysmex), and diluted with PPP to adjust the platelet density to 300,000 platelets/μl.
# Preparation of aggregation inducers was performed in the same manner as described earlier.
# For each experiment, the doses of the inducers were so set as to obtain best evaluation of the action of the study substance. That is, the concentration of each inducer at which aggregation would clearly develop in the presence of a negative control (physiological saline) but would not excessive was set for each experiment.
# If aggregation is induced by high concentration ADP or high concentration epinephrine, on the other hand, primary aggregation takes place, and then secondary aggregation proceeds again, under the action, as a trigger, of alpha granules (PDGF, serotonin, ADP, etc.) liberated from activated platelets. In the present study, the effect of the study substance on secondary aggregation due to ADP or epinephrine was also investigated.
# Serotonin, when used alone, minimally causes platelet aggregation. Thus, a combination of serotonin and collagen, or a combination of serotonin and ADP was used as the inducer. […] For example, if serotonin used alone induced aggregation at a dose of 1 mM, but induced little aggregation at a dose of 0.5 mM, and if ADP alone induced aggregation at a dose of 0.25 mM, but induced no aggregation at a dose of 0.11 mM, then the doses, 0.25 mM serotonin+0.05 mM ADP, were set.
# Compound 2 was used as the study substance, and the preparation of the inducers was performed in the same manner as described earlier.
# The measurement of the transmittance was carried out in the same manner as described earlier.
# platelets [2] = assay: Ex vivo platelet aggregation after intravenous administration; format: in vivo, rat
# Experimental: The blood was withdrawn at three points in time, 10 minutes, 30 minutes and 1 hour after administration. Platelets were prepared from the blood samples taken, and they were used to study the aggregation rates when platelet aggregation was induced by 0.3 to 6 μg/ml of collagen. In a control group, the aggregation rates after administration of a solvent (physiological saline) were measured.
# It was studied whether the compound of the present invention would suppress ex vivo platelet aggregation dose-dependently.
# The blood was withdrawn 60 minutes after administration, and platelets were prepared from the blood. Platelet aggregation was induced by 4 to 7 μg/ml of collagen using the platelets.
# The blood was withdrawn 1 hour after intravenous administration, and platelets were prepared from the blood. Platelet aggregation was induced by 1 to 6 μg/ml of collagen using the platelets.
# platelets [3] = assay: Ex vivo platelet aggregation after oral administration; format: in vivo, rat; settings: 10, 1 or 0.1 mg/kg oral single dose, rats, blood 2 hours after administration, collagen 2 to 4 μg/ml
# Experimental: Compound 2 in a dose of 10, 1 or 0.1 mg/kg was orally administered, as a single dose, to rats with the use of a probe needle. A solvent (physiological saline) was administered as a control.
# The blood was withdrawn 2 hours after administration, and platelets were prepared from the blood. Platelet aggregation was induced by 2 to 4 μg/ml of collagen using the platelets. The preparation of platelets and the measurement of the aggregation rate were performed in the same manner as in Test Example 1.
# mice = assay: Collagen-induced mouse sudden death model; format: in vivo; settings: 30 μg/kg intravenous 1 hour before 37.5 mg/kg collagen; survival one hour later
# Experimental: As a preliminary study of the effect of the compounds of the present invention on an in vivo pathophysiological model, it was investigated whether the compound of the present invention would suppress collagen-induced mouse sudden death. In this model, pulmonary capillaries are obstructed by a large amount of collagen, and a sudden death is caused by oxygen deficiency.
# One hour after a solvent (physiological saline) or 30 μg/kg of Compound 2 was intravenously administered to mice, 37.5 mg/kg of collagen was administered to the caudal vein. One hour later, the survival rate was compared between the groups.
# [4] = system: rat middle cerebral artery obstruction; assay: Photosensitization-induced rat middle cerebral artery obstruction model; format: in vivo; settings: 1 mg/kg intravenous after laser irradiation, evaluated 24 hours after
# Experimental: A photosensitization-induced rat middle cerebral artery obstruction model, widely used as a cerebral infarction acute phase/chronic phase model, was used to investigate the effect of the compounds of the present invention on an in vivo circulatory disorder pathophysiological model.
# After rats were intravenously injected with a rose bengal dye (20 mg/kg), the middle cerebral artery was irradiated with green laser light (wavelength 540 nm) for 10 minutes to induce arterial infarction due to active oxygen species. After completion of irradiation with laser light, Compound 2 was intravenously administered.
# A solvent (physiological saline) was intravenously administered as a control.
# The progress of cerebral infarction was observed 24 hours after laser light irradiation. A transverse section (1 mm in thickness) of the brain exenterated was prepared, and soaked in triphenyltetrazolium to stain living tissue red. An infarct was white, and was clearly distinguished from the living tissue. Thus, the area of the infarct was measured, and the infarct rate (the proportion of the area of the infarct to the transverse section of the brain) was calculated for use in evaluation.
# human platelets [5] = assay: Human in vitro platelet aggregation; format: cell-based; settings: inducer Serotonin + ADP, (0.25˜1) μM + (0.05˜0.25) μM, read-out: 50% inhibition point, IC50, against human in vitro platelet aggregation
compound,measurement,setting,value
"CC/C=C\C/C=C\C/C=C\C/C=C\C/C=C\C/C=C\CCC(=O)NCCC1CCCN1C (racemic) [Compound 2, (4Z,7Z,10Z,13Z,16Z,19Z)-N-[2-(1-methylpyrrolidin-2-yl)ethyl]docosahexaenoamide]",IC50,"human platelets [1]; inducer ADP (0.5˜1) μM, primary aggregation",30 µM
same,IC50,"human platelets [1]; inducer ADP (1˜2.5) μM, secondary aggregation",0.57 µM
same,IC50,human platelets [1]; inducer Arachidonic acid (1˜2) μM,80 µM
same,IC50,human platelets [1]; inducer Collagen (0.075˜0.25) μg/ml,13 µM
same,IC50,"human platelets [1]; inducer Epinephrine 1 μM, primary aggregation",33 µM
same,IC50,"human platelets [1]; inducer Epinephrine (1˜3) μM, secondary aggregation",2.7 µM
same,IC50,"human platelets [1]; inducer Serotonin + Collagen, (0.25˜0.5) μM + (0.05˜0.2) μg/ml",15 µM
same,IC50,human platelets [1]; inducer Thrombin (0.2˜0.25) U/ml,57 µM
same,IC50,human platelets [1]; inducer U46619 (pseudo-thromboxane A2) (5˜10) μM,53 µM
same,ex vivo IC50 blood concentration as fraction of in vitro IC50,platelets [2]; 26 nM versus 2.1±0.8 μM in vitro,about 1/80
same,ex vivo platelet aggregation (in words),"platelets [2]; 0.0001 mg/kg rat caudal vein, 60 minutes, collagen 4 μg/ml","suppressed compared with the solvent-treated group, although the suppressive action was weak"
same,"ex vivo platelet aggregation, onset of efficacy (in words)","platelets [2]; 10 mg/kg caudal vein, male SD rats, blood 10 minutes, 30 minutes and 1 hour after administration, collagen 0.3 to 6 μg/ml",platelet aggregation was suppressed in comparison with the solvent group
same,ex vivo platelet aggregation (in words),"platelets [2]; 1, 0.1, 0.01 or 0.001 mg/kg rat caudal vein, blood 60 minutes after administration, collagen 4 to 7 μg/ml",platelet aggregation was suppressed in comparison with the solvent-treated group
same,"ex vivo platelet aggregation, dose-dependency (in words)","platelets [2]; FIG. 3, 0.0001 to 1 mg/kg rat caudal vein, 60 minutes",suppressing platelet aggregation ex vivo dose-dependently
same,estimated blood concentration at the ex vivo IC50 dose,"platelets [2]; Platelet, iv, 630 ng/kg, rat blood estimated at about 60 ml/kg, read-out: presumed blood concentration at the ex vivo IC50 dose",0.026 µM
same,IC50 for suppression of ex vivo platelet aggregation relative to conventional GPIIb/IIIa receptor antagonists,"platelets [2]; rat, intravenous","about 1,000 times"
same,"50% suppression point, IC50, ex vivo platelet aggregation","platelets [2]; rat, intravenous, 60 minutes after administration, collagen 4 μg/ml",630 ± 36 ng/kg and 630 ng/kg
same,ex vivo platelet aggregation after oral administration (in words),platelets [3],potently suppressed
same,Survival rate,mice,7/10
same,"cerebral infarction, infarct rate (in words)",[4],ameliorate cerebral infarction
same,IC50,human platelets [5],3 µM
